From patent publication US8362267B2, “Benzophenone thiazole derivatives useful for inhibiting formation of microtubule and method for producing the same” (Chong Kun Dang Pharmaceutical Corp., priority 2008, dated 2013)
Values after ≈ are worked out from the molar mass of the structure shown. Like-named read-outs stand apart in the source and are kept apart here. Blank lines part the entries; values can stand above or below the compound they belong to.

What was measured:
[1] = test system: CX-1 (human colon adenocarcinoma); assay: In vivo antitumor activity, human xenograft, colorectal cancer model CX-1; set-up: species or system BALB/c nude mice; conditions: for Body weight change (%) / Number of dead animals / IR (%): q4d x 4 (i.p.); for animal death / pharmaceutical effects as compared to the reference drug, AC7700 / weight loss: CX-1 xenograft model; for animal death / pharmaceutical effects as compared to the reference drug, AC7700: in words; for weight loss: as compared to the compound 516, in words
Method: (§1) BALB/c male nude mice (4 weeks) available from Central Lab Animal Inc. were used for human xenograft experiments. Sterile food and potable water were freely provided to the mice in an isolated sterile cage and the temperature of the cage was maintained at 23±0.5° C.
(§2) In vivo human xenograft experiments were performed in accordance with the following procedure. In vitro proliferated human-derived cancer cell lines (CX-1, HCT-15, A549, MKN45, calu-6) were subcutaneously injected into the abdominal region of BALB/c nude mice and were thus proliferated in vivo. After 20 to 25 days, the mice were sacrificed by cervical spine dislocation, solid cancer cells proliferated in the mice were sterilely separated and fresh cancer cells from which connective or necrotic tissues or skin were removed were collected. The fragments of tumor were transplanted to the BALB/c nude mice.
(§3) The mice in which cancer cells were proliferated to a predetermined size were collected on the 15th to 30th day after human-derived cancer models were transplanted into the BALB/c nude mice and then used for the tests. For each experimental group, the drug was injected at a dose of 0.1 mL per 10 g of mouse in accordance with a dose schedule, when tumor cells were grown to a size of 100 to 200 mm^3 after tumor transplantation.
(§4) After administration, antitumor activity was evaluated based upon an antitumor inhibition rate (IR %) of tumor growth, obtained by comparing a tumor volume measured on the final day with a tumor volume of a control group. As the reference drug, AC7700 (Sanofi-Aventis), which is currently undergoing phase III clinical trials, was used. Tumor size=(short diameter)^2×(long diameter)/2 I.R.(%)=[1−(average tumor size of drug-administered group)/(average tumor size of control group)]×100

[2] = test system: A549 (human lung carcinoma, CCL-185); assay: In vivo antitumor activity, human xenograft, lung cancer model A549
Method: as §1
(§5) A human cancer model, CX-1 (human colon adenocarcinoma), for xenograft experiment was obtained from the German Cancer Research Center (DKFZ), and HCT-15 (human colorectal adenocarcinoma, CCL-225) and A549 (human lung carcinoma, CCL-185) were obtained from ATCC (American Type Culture Collection, Rockville, Md., USA). Human tumor cells, MKN45 (human gastric adenocarcinoma, #80103) and calu-6 (human lung carcinoma, #30056) were obtained from KCLB (Korean Cell Line. Bank).
(§6) CX-1 was incubated in a 95% air incubator (37° C., 5% CO2) using a DMEM (Dulbecco's Modified Eagle's Medium, Gibco) supplemented with 10% heat-inactivated fetal bovine serum (Gibco) and 1% Antibiotics-Antimycotics (Gibco). Other cell lines were incubated in a 95% air incubator (37° C., 5% CO2) using an RPM1640 (Gibco BRL) medium supplemented with 10% heat-inactivated fetal bovine serum (Gibco) and 1% Antibiotics-Antimycotics (Gibco).
as §2, §3, §4

[3] = test system: calu-6 (human lung carcinoma, #30056); assay: In vivo antitumor activity, human xenograft, non-small cell lung cancer model calu-6
Method: as §1, §5, §6, §2, §3, §4

[4] = test system: HCT-15 (human colorectal adenocarcinoma, CCL-225); type: in vivo; conditions: HCT-15 xenograft, q4d x 4 (i.p.)
Method: as §1, §5, §6, §2, §3, §4

[5] = test system: MKN45 (human gastric adenocarcinoma, #80103); assay: In vivo antitumor activity, human xenograft, stomach cancer model MKN45
Method: as §1, §5, §6, §2, §3, §4

[6] = Measurement of solubility in water (HPLC); type: physicochemical; conditions: thermodynamic from solid; in distilled water, 25° C.
Method: The compounds of the present invention were developed to reduce toxicity caused by deposition on organ due to low solubility of compound 516, as confirmed by animal tests. Considering this, solubility of the present compounds in water was thus measured.
The compound was dissolved in acetonitrile to a concentration of 1 mg/mL and the solution was diluted with a mobile phase to a concentration of 5, 12.5, 25, 50 or 100 μg/ml.
1. The compound was added to distilled water such that the concentration of each specimen was adjusted to 10 mg/mL, stirred in a thermostat stirrer (25° C., 200 rpm) for about 7 days, filtered and diluted with a mobile phase to an optimal concentration.
2. The compound was added to distilled water such that the concentration of each specimen was adjusted to 10 mg/mL, sonicated for 30 minutes, stirred for 5 minutes, filtered, sonicated for 30 minutes again and diluted with a mobile phase to an optimal concentration.
Column temperature: 25° C.
Column: Kromasil C8 (4.6×150 mm, 5 μm)
Mobile phase: 20 mM ammonium acetate, pH 5.0/ACN (60/40)

[7] = Table 3, CX-1 xenograft, 100 mg/kg
[8] = Table 4, CX-1 xenograft, 100 mg/kg
[9] = A549 xenograft, 80 mg/kg, q4d x 4 (i.p.)
[10] = calu-6 xenograft, 80 mg/kg, q4d x 4 (i.p.)
[11] = MKN45 xenograft, 80 mg/kg, q4d x 4 (i.p.)
[12] = Table 3, CX-1 xenograft, 5 mg/kg
[13] = Table 4, CX-1 xenograft, 5 mg/kg
[14] = Table 4, CX-1 xenograft, 10 mg/kg
[15] = A549 xenograft, 5 mg/kg, q4d x 4 (i.p.)
[16] = A549 xenograft, 7.5 mg/kg, q4d x 4 (i.p.)
[17] = A549 xenograft, 10 mg/kg, q4d x 4 (i.p.)
[18] = calu-6 xenograft, 5 mg/kg, q4d x 4 (i.p.)
[19] = calu-6 xenograft, 7.5 mg/kg, q4d x 4 (i.p.)
[20] = calu-6 xenograft, 10 mg/kg, q4d x 4 (i.p.)
[21] = MKN45 xenograft, 5 mg/kg, q4d x 4 (i.p.)
[22] = MKN45 xenograft, 7.5 mg/kg, q4d x 4 (i.p.)
[23] = MKN45 xenograft, 10 mg/kg, q4d x 4 (i.p.)
[24] = Table 4, CX-1 xenograft, 20 mg/kg

Compound: COc1ccc(/C=C\c2cc(OC)c(OC)c(OC)c2)cc1NC(=O)[C@@H](N)CO [AC7700, reference compound]
Body weight change (%) [1, 7]: +13.2%
Number of dead animals [1, 7]: 2/6
IR (%) ([1]; Table 3, CX-1 xenograft, 100 mg/kg, tumor volume on final day vs control): 48%
Body weight change (%) [1, 8]: +22.8%
IR (%) [1, 8]: 34%
Number of dead animals [1, 8]: 0/6
Body weight change (%) [2, 9]: +2.6%
IR (%) [2, 9]: 64%
Number of dead animals [2, 9]: 0/7
Body weight change (%) [3, 10]: +22.4%
IR (%) [3, 10]: 80%
Number of dead animals [3, 10]: 0/6
Body weight change (%) ([4]; 80 mg/kg): +5.5%
IR (%) ([4]; 80 mg/kg): 66%
Number of dead animals ([4]; 80 mg/kg): 1/6
Body weight change (%) [5, 11]: +7.8%
IR (%) [5, 11]: 55%
Number of dead animals [5, 11]: 0/6

Compound: COc1cc(C(=O)c2ccc(-c3csc(N)n3)cc2-n2cncn2)cc(OC)c1OC [Compound 516, {4-(2-aminothiazol-4-yl)-2-(1H-1,2,4-triazol-1-yl)phenyl}(3,4,5-trimethoxyphenyl)methanone, reference compound]
animal death [1]: two animals died
pharmaceutical effects as compared to the reference drug, AC7700 [1]: significantly superior pharmaceutical effects
Body weight change (%) [1, 12]: +15.2%
Number of dead animals [1, 12]: 2/6
IR (%) ([1]; Table 3, CX-1 xenograft, 5 mg/kg, tumor volume on final day vs control): 36%
solubility [6]: 0.5 mg/mL (≈ 1.14 mM)

solubility [6]: 23.3 mg/mL (≈ 47.1 mM)
Compound: COc1cc(C(=O)c2ccc(-c3csc(NC(=O)CN)n3)cc2-n2cncn2)cc(OC)c1OC [Compound 615, N-(4-(3-(1H-1,2,4-triazol-1-yl)-4-(3,4,5-trimethoxybenzoyl)phenyl)thiazol-2-yl)-2-aminoacetamide]

Compound: COc1cc(C(=O)c2ccc(-c3csc(NC(=O)[C@@H](N)C(C)C)n3)cc2-n2cncn2)cc(OC)c1OC [Compound 624, (S)—N-(4-(3-(1H-1,2,4-triazol-1-yl)-4-(3,4,5-trimethoxybenzoyl)phenyl)thiazol-2-yl)-2-amino-3-methylbutanamide]
weight loss [1]: no weight loss
animal death [1]: no animal death
pharmaceutical effects as compared to the reference drug, AC7700 [1]: significantly superior pharmaceutical effects
Body weight change (%) [1, 13]: +25.7%
IR (%) [1, 13]: 28%
Body weight change (%) [1, 14]: +14.7%
IR (%) [1, 14]: 64%
pharmaceutical effects as compared with the reference drug ([2]; A549 xenograft model, in words): significantly superior pharmaceutical effects
Body weight change (%) [2, 15]: −1.7%
IR (%) [2, 15]: 39%
Body weight change (%) [2, 16]: +1.7%
IR (%) [2, 16]: 61%
Body weight change (%) [2, 17]: −1.2%
IR (%) [2, 17]: 71%
pharmaceutical effects as compared with the reference drug ([3]; calu-6 xenograft model, in words): significantly superior pharmaceutical effects
Body weight change (%) [3, 18]: +26.2%
IR (%) [3, 18]: 41%
Body weight change (%) [3, 19]: +26.0%
IR (%) [3, 19]: 73%
Body weight change (%) [3, 20]: +20.6%
IR (%) [3, 20]: 82%
Body weight change (%) ([4]; 5 mg/kg): +1.8%
IR (%) ([4]; 5 mg/kg): 12%
Body weight change (%) ([4]; 7.5 mg/kg): +3.2%
IR (%) ([4]; 7.5 mg/kg): 63%
Body weight change (%) ([4]; 10 mg/kg): +6.6%
IR (%) ([4]; 10 mg/kg): 69%
solubility [6]: 14.9 mg/mL (≈ 27.8 mM)
pharmaceutical effects as compared with the reference drug ([5]; MKN45 xenograft model, in words): significantly superior pharmaceutical effects
Body weight change (%) [5, 21]: −11.8%
IR (%) [5, 21]: 21%
Body weight change (%) [5, 22]: +2.9%
IR (%) [5, 22]: 46%
Body weight change (%) [5, 23]: +4.3%
IR (%) [5, 23]: 68%

Compound: COc1cc(C(=O)c2ccc(-c3csc(NC(=O)[C@@H](N)Cc4ccccc4)n3)cc2-n2cncn2)cc(OC)c1OC [Compound 625]
weight loss [1]: no weight loss
animal death [1]: no animal death
pharmaceutical effects as compared to the reference drug, AC7700 [1]: significantly superior pharmaceutical effects
Body weight change (%) [1, 13]: +28.9%
IR (%) [1, 13]: 21%
Body weight change (%) [1, 14]: +24.5%
IR (%) [1, 14]: 43%
solubility [6]: 11 mg/mL (≈ 18.8 mM)

Compound: COc1cc(C(=O)c2ccc(-c3csc(NC(=O)CN(C)C)n3)cc2-n2cncn2)cc(OC)c1OC [Compound 631, N-(4-(3-(1H-1,2,4-triazol-1-yl)-4-(3,4,5-trimethoxybenzoyl)phenyl)thiazol-2-yl)-2-(dimethylamino)acetamide]
weight loss [1]: no weight loss
animal death [1]: no animal death
pharmaceutical effects as compared to the reference drug, AC7700 [1]: significantly superior pharmaceutical effects
Body weight change (%) [1, 13]: +24.8%
IR (%) [1, 13]: 23%
Body weight change (%) [1, 14]: +26.7%
IR (%) [1, 14]: 20%
Body weight change (%) [1, 24]: +20.9%
IR (%) [1, 24]: 37%

solubility [6]: 12.1 mg/mL (≈ 22 mM)
Compound: COc1cc(C(=O)c2ccc(-c3csc(NC(=O)[C@@H](N)CC(C)C)n3)cc2-n2cncn2)cc(OC)c1OC [Compound 647, (S)—N-(4-(3-(1H-1,2,4-triazol-1-yl)-4-(3,4,5-trimethoxybenzoyl)phenyl)thiazol-2-yl)-2-amino-4-methylpentanamide]
